Test results published in US20080299195A1, “USE OF RANOLAZINE FOR ELEVATED BRAIN-TYPE NATRIURETIC PEPTIDE” (priority 2007, published 2008).

Test system: patients with non-ST elevation ACS
Assay: MERLIN-TIMI 36 trial: randomized, double-blind, placebo-controlled trial of ranolazine, stratified by baseline BNP
Type: in vivo, human
Conditions: ranolazine vs placebo
Description: Ranolazine is believed to exert anti-ischemic effects through a reduction in myocardial cellular sodium and calcium overload with a consequent reduction in wall stress. B-type natriuretic peptide (BNP) is released in response to increased wall stress and is a potent indicator of risk in acute coronary syndromes (ACS). This study was a prospective evaluation of the interaction between BNP and the effect of ranolazine as part of a randomized, double-blind, placebo-controlled trial.
Patients with a non-ST elevation acute coronary syndrome (NSTEACS), refers to patients with chest discomfort or anginal equivalent occurring at rest, lasting ≧10 minutes, and consistent with myocardial ischemia, and the presence of ischemic symptoms (≧5 minutes) at rest within 48 hours of admittance which may include index episode, and having at least one of the following indicators of moderate-high risk: • Elevated cardiac troponin (above local MI limit) or CK-MB (>ULN) • ST-depression (horizontal or down-sloping) >0.1 mV • Diabetes mellitus (requiring insulin or oral therapy) • A Risk Score of >3 wherein one point is assigned for each of the following variables and a total score calculated as the arithmetic sum: • Age >65 years; • Known CAD (prior MI, CABG, PCI or angiographic stenosis ≧50%); • Three or more cardiac risk factors (DM, elevated cholesterol, hypertension, family history); • More than one episode of ischemic discomfort at rest in the prior 24 hours; • Chronic aspirin use in the 7 days preceding onset of symptoms; • ST segment depression ≧0.05 mV; and • Elevated cardiac troponin or CK-MB.
Plasma BNP were measured (ADVIA® BNP) at baseline (N=4543), 14 days (N=4079), and the Final Visit (N=3328) of the patients with non-ST elevation ACS randomized to ranolazine or placebo in the MERLIN-TIMI 36 trial. During the trial 200 mg of ranolazine (or matching placebo) was administered intravenously over 1 hour, followed by an 80 mg/hr intravenous infusion, which was reduced to 40 mg/hr for patients with an estimated creatinine clearance of less than […] (<0.50 mL/s), and was continued for 12 to 96 hours. On or near the completion (about 1 hour before completion) of the infusion, transition from the IV solution to ranolazine extended release (or matching placebo) occurred and ranolazine extended release (or matching placebo) continued orally at a dose of 1000 mg twice daily until the end of the study. [Morrow, et al., J. Am. Med. Assoc'n. 297 (16), 1775-1783, 2007]. Patients were stratified using BNP >80 pg/mL based upon prior work with this assay. The primary endpoint of the trial was a composite of cardiovascular death, myocardial infarction, or recurrent ischemia (CVD/MI/RI).

## COc1ccccc1OCC(O)CN1CCN(CC(=O)Nc2c(C)cccc2C)CC1 (racemic) [ranolazine, (±)-N-(2,6-dimethylphenyl)-4-[2-hydroxy-3-(2-methoxyphenoxy)propyl]-1-piperazine-acetamide]
Patients with BNP>80 pg/mL, CI 0.35-0.84, p=0.005
  HR for endpoint component of worsening angina: 0.55
Patients with BNP>80 pg/mL, IV 200 mg over 1 h, then 80 mg/hr for 12 to 96 hours, then extended release 1000 mg twice daily orally, 95% CI 0.66-0.94, p=0.009
  HR for primary endpoint (composite of cardiovascular death, myocardial infarction, or recurrent ischemia, CVD/MI/RI): 0.79
Patients with a negative BNP result, p-interaction=0.052
  effect on primary endpoint (CVD/MI/RI): lack of detectable effect
95% CI 0.63-1.28, p=0.55, p-interaction 0.079
  HR for endpoint component of worsening angina: 0.90
